# Experimental data reported in patent publication US20260159512A1, “BCAT2 INHIBITORS” (AGIOS PHARMACEUTICALS, INC., priority 2021, published 2026).
# “And” between values parts separate entries of the source, which are not always exact repeats. Equal entries are not always repeated.
# What was measured:
# Settings in all cases: average where tested multiple times
# [1] = target: T1, BCAT2 (Homo sapiens, UniProt O15382); assay: BCAT2 in vitro enzyme inhibition assay (resazurin/diaphorase-coupled fluorescence); type: biochemical
# T1 sequence (O15382 28-392): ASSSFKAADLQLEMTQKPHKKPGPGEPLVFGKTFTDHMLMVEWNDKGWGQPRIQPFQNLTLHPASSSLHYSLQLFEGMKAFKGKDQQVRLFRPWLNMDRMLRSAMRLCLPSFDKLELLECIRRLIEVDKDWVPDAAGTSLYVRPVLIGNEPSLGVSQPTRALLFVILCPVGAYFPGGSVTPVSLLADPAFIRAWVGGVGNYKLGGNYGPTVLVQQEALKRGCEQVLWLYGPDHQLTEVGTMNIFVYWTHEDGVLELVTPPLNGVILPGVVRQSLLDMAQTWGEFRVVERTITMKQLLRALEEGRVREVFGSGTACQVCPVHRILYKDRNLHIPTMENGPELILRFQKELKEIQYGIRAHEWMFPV
# Outline: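 Coupled fluorescence readout: glutamate formed from L-leucine/α-ketoglutarate transamination drives GDH/NAD/diaphorase reduction of resazurin (Ex 540/Em 590). Human BCAT2 was first exposed 1 h at room temperature to compound, top final 100 μM in 3-fold, 10-point series; substrate reaction ran 1 h before SDS quench, in technical duplicate with DMSO max and enzyme-free min controls.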
# [2] = target: T1, BCAT2; assay: BCAT2 in vitro cell inhibition using engineered A549 cells (KMV cell assay, 13C6-KMV by LC-MS/MS); type: cell-based; parameters: The result was an engineered A549 cell line that expressed endogenous BCAT2; endogenous in cells; host or cells: A549 cells with MUT and BCAT1 knocked out by CRISPR/CAS9; key to BCAT2 Cell Inhibition: A: less than or equal to 0.100 μM; B: greater than 0.100 and less than or equal to 0.500 μM; C: greater than 0.500 and less than or equal to 1.000 μM; d: greater than 1.000 μM; E: no fit
# [3] = target: T2, hBCAT1 (Homo sapiens, UniProt P54687); assay: BCAT1 in vitro enzyme inhibition assay (resazurin/diaphorase-coupled fluorescence); type: biochemical
# T2 sequence (P54687 1-386): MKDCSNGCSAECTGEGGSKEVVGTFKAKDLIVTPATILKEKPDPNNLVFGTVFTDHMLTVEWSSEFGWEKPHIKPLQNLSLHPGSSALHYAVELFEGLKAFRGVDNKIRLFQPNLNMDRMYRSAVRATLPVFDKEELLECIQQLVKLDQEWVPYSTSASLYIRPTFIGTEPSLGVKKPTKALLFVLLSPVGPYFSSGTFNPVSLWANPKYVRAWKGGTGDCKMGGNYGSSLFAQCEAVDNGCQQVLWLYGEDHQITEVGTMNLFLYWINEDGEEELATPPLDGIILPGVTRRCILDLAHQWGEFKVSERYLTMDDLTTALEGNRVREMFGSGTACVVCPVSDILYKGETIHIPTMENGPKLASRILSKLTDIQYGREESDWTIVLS
# Outline: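 Human BCAT1 activity read by resazurin/diaphorase-coupled fluorescence. Compounds added from 50× DMSO stocks at 1:50, giving 10-point 3-fold titrations from 100 μM top final concentration. Run in technical duplicate; repeat tests averaged.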
SMILES,IC50 [1] [nM],BCAT2 Cell Inhibition [2],IC50 [3] [nM],IC50 [2]
"CC(C)Cc1nc2cnc(-c3cccc(F)n3)cc2n1[C@H]1C[C@H](O)C[C@@H](NC(=O)c2ncc(Cl)s2)C1 (stereo in doubt) [Example 385, 5-chloro-N-((1S,3R,5R)-3-(6-(6-fluoropyridin-2-yl)-2-isobutyl-1H-imidazo[4,5-c]pyridin-1-yl)-5-hydroxycyclohexyl)thiazole-2-carboxamide]",≤ 100,,< 500,100 to 500 nM
"CC(C)Cc1nc2cnc(-c3cccc(F)n3)cc2n1[C@@H]1CCC[C@H](NC(=O)c2ncc(Cl)s2)C1 [Example 160, 5-chloro-N-((1S,3R)-3-(6-(6-fluoropyridin-2-yl)-2-isobutyl-1H-imidazo[4,5-c]pyridin-1-yl)cyclohexyl)thiazole-2-carboxamide]",≤ 100,,500 to 1000,500 to 1000 nM
"CC(=O)N1C[C@@H](NC(=O)c2ncc(C(F)F)s2)C[C@@H](n2c(-c3ccccc3F)nc3cnc(-c4ncco4)cc32)C1 [Example 127, N-((3S,5R)-1-acetyl-5-(2-(2-fluorophenyl)-6-(oxazol-2-yl)-1H-imidazo[4,5-c]pyridin-1-yl)piperidin-3-yl)-5-(difluoromethyl)thiazole-2-carboxamide]",100 to 500,,1000 to 5000,> 1000 nM
"Cc1coc(-c2cc3c(cn2)nc(CC(C)C)n3C2CCCC(NC(=O)c3ncc(Cl)s3)C2O)n1 (stereo not drawn) [Example 211, 5-chloro-N-(2-hydroxy-3-(2-isobutyl-6-(4-methyloxazol-2-yl)-1H-imidazo[4,5-c]pyridin-1-yl)cyclohexyl)thiazole-2-carboxamide]",≤ 100,,< 500,100 to 500 nM
"CN1CC(NC(=O)c2ccc(Br)s2)CC(n2c(-c3ccccc3F)nc3cnc(-c4ncco4)cc32)C1 (stereo not drawn) [Example 117, 5-bromo-N-(5-(2-(2-fluorophenyl)-6-(oxazol-2-yl)-1H-imidazo[4,5-c]pyridin-1-yl)-1-methylpiperidin-3-yl)thiophene-2-carboxamide]",≤ 100,,500 to 1000,≤ 100 nM
"Cn1nccc1-c1nc2cnc(-n3nccn3)cc2n1[C@@H]1CCC[C@H](NC(=O)c2ncc(C(F)F)s2)C1 [Example 43, 5-(difluoromethyl)-N-((1S,3R)-3-(2-(1-methyl-1H-pyrazol-5-yl)-6-(2H-1,2,3-triazol-2-yl)-1H-imidazo[4,5-c]pyridin-1-yl)cyclohexyl)thiazole-2-carboxamide]",≤ 100,,> 5000,500 to 1000 nM and 100 to 500 nM

# Next, values leading:
IC50 [1] [nM],BCAT2 Cell Inhibition [2],IC50 [3] [nM],IC50 [2],SMILES
100 to 500,E,1000 to 5000,,"CC(C)Cc1nc2cnc(-c3ccc4ccoc4c3)cc2n1[C@@H]1CCC[C@H](NC(=O)c2ncc(Cl)s2)C1 [Example 319, N-((1S,3R)-3-(6-(benzofuran-6-yl)-2-isobutyl-1H-imidazo[4,5-c]pyridin-1-yl)cyclohexyl)-5-chlorothiazole-2-carboxamide]"
≤ 100,,< 500,500 to 1000 nM,"CC(C)Cc1nc2cnc(-n3ncc(CO)n3)cc2n1[C@@H]1CCC[C@H](NC(=O)c2ncc(Cl)s2)C1 [Example 337, 5-chloro-N-((1S,3R)-3-(6-(4-(hydroxymethyl)-2H-1,2,3-triazol-2-yl)-2-isobutyl-1H-imidazo[4,5-c]pyridin-1-yl)cyclohexyl)thiazole-2-carboxamide]"
≤ 100,,< 500,≤ 100 nM,"O=C(N[C@H]1C[C@H](O)C[C@@H](n2c(-c3ccccc3F)nc3cnc(-c4nc[nH]n4)cc32)C1)c1ccc(Cl)s1 [Example 254, 5-chloro-N-((1R,3S,5S)-3-(2-(2-fluorophenyl)-6-(1H-1,2,4-triazol-3-yl)-1H-imidazo[4,5-c]pyridin-1-yl)-5-hydroxycyclohexyl)thiophene-2-carboxamide]"
≤ 100,,< 500,≤ 100 nM,"N#CCc1ccccc1-c1nc2cnc(-c3nc[nH]n3)cc2n1[C@@H]1CCC[C@H](NC(=O)c2ncc(Cl)s2)C1 [Example 355, 5-chloro-N-((1S,3R)-3-(2-(2-(cyanomethyl)phenyl)-6-(1H-1,2,4-triazol-3-yl)-1H-imidazo[4,5-c]pyridin-1-yl)cyclohexyl)thiazole-2-carboxamide]"
